Where only a bound is given, the exact number is not on record here.

For data set [1] the following is noted: human, microsomes, 0.5 h.
Description: 100 μl of 100 mM phosphate buffer solution (pH 7.4) containing 3 μM test compound was added to 100 μl of reaction solution containing 100 mM phosphate buffer solution (pH 7.4), 30 mM glucose 6-phosphate, 10 mM MgCl2·6H2O, 3 units/ml glucose 6-phosphate 1-dehydrogenase, and 0.3 to 1.5 mg/ml human liver microsomes and the mixture was incubated at 37° C. for 20 minutes. Then 70 μl of 100 mM phosphate buffer solution (pH 7.4) containing 3 mM NADP+ was added and the mixture was further incubated at 37° C. for 30 minutes to conduct a microsomal metabolism test. The compound was quantified by the internal standard method using a quadrupole mass spectrometer connected to a high performance liquid chromatography apparatus. The metabolic stability (residual percentage of compound: MS %) was determined according to the following formula;
(peak area ratio: peak area of test compound divided by that of internal standard substance)
Data set [2] has as its target T1, Mdm2/p53 binding (GST-Mdm2 / His-p53) (Homo sapiens, UniProt Q00987, L33E).
T1 construct: Mdm2 partial protein having Mdm2 amino acids at positions 25 to 108
The data set is described as follows: Mdm2/p53 binding assay (HTRF, His-p53 and GST-Mdm2). The following applies: His-p53 (aa 1-132) and GST-Mdm2 (aa 25-108, L33E) 6.25 nM each; 25°C, 1 hour; values given as ranges. The method, boiled down:
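His-p53 (aa 1–132) and GST-Mdm2 (aa 25–108, L33E) were prepared at 6.25 nM each in the protein dilution (20 mM HEPES pH 7.4, 150 mM NaCl, 0.1% BSA). Compound in 10% DMSO buffer and XL665 anti-His/Eu anti-GST antibodies (KF buffer) were added, with 1 h at 25 °C. The 665/620 nm TR-FRET ratio gave T/C and a sigmoid-fitted IC50.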

The test system of data set [3] is human lung cancer-derived cell line NCI-H460 having wild-type p53. The data set is described as follows: Cell growth inhibition assay (MTT). Format: cell-based. The following applies: 72 h, NCI-H460 cells, 3 days culture, values given as ranges, read-out: 50% growth inhibition concentration (GI50 value). The method, boiled down:
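NCI-H460 cells (wild-type p53) seeded at 500 cells/well in RPMI1640 with 10% FBS, then treated the next day and grown 3 days at 37 °C. MTT read-out at OD 540 nm (660 nm reference), taken at dosing and at day 3. GI50 derived from T/C (%) dose-response curves.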

T1 sequence (Q00987 25-108 L33E): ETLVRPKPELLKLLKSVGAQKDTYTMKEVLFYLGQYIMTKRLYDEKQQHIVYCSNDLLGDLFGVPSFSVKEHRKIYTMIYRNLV

On to `CC1(C)CCC2(CC1)N[C@@H](C(=O)N[C@H]1CC[C@H](c3nnco3)CC1)[C@H](c1cccc(Cl)c1F)[C@]21C(=O)Nc2cc(Cl)ncc21` (relative stereo) [Example 108, (3′R, 4′S, S′R)-6″-chloro-4′-(3-chloro-2-fluorophenyl)-4,4-dimethyl-N-[trans-4-(1,3,4-oxadiazol-2-yl)cyclohexyl]-2″-oxo-1″,2″-dihydrodispiro[cyclohexane-1,2′-pyrrolidine-3′,3″-pyrrolo[3,2-c]pyridine]-5′-carboxamide], for which the “metabolic stability (residual percentage of compound: MS %)” value in data set [1] is recorded as 70-100%.

`CC1(C)CCC2(CC1)N[C@@H](C(=O)N[C@H]1C[C@H](C(C)(C)O)C1)[C@H](c1ccnc(Cl)c1F)[C@]21C(=O)Nc2cc(Cl)ccc21` [Example 154, (3′R, 4′S,5′R)-6′-chloro-4′-(2-chloro-3-fluoropyridin-4-yl)-N-[trans-3-(2-hydroxypropan-2-yl)cyclobutyl]-4,4-dimethyl-2″-oxo-1″,2″-dihydrodispiro[cyclohexane-1,2′-pyrrolidine-3′,3″-indole]-5′-carboxamide]: the IC50 (commonly the concentration that inhibits the measured activity by half) in data set [2] is 50 to 100 nM. Also, the GI50 in data set [3] is 100 to 500 nM.

`Cc1nnc([C@@H]2CC[C@@H](NC(=O)[C@@H]3NC4(CCC(C)(C)CC4)[C@@]4(C(=O)Nc5cc(Cl)ccc54)[C@H]3c3ccnc(Cl)c3F)CO2)o1` [Example 156] yielded an IC50 in data set [2] of 1 to 50 nM. The GI50 in data set [3] is below 100 nM.

Compound `CC1(C)CCC2(CC1)N[C@@H](C(=O)N[C@@H]1CC[C@@H](CCO)OC1)[C@H](c1ccnc(Cl)c1F)[C@]21C(=O)Nc2cc(Cl)ccc21` [Example 160, (3′R, 4′S,5′R)-6″-chloro-4′-(2-chloro-3-fluoropyridin-4-yl)-N-[(3R,6S)-6-(2-hydroxyethyl)tetrahydro-2H-pyran-3-yl]-4,4-dimethyl-2″-oxo-1″,2″-dihydrodispiro[cyclohexane-1,2′-pyrrolidine-3′,3″-indole]-5′-carboxamide] displayed a 50% inhibitory concentration (IC50) in data set [2] of 50 to 100 nM. The GI50 in data set [3] is below 100 nM.

`CC1(C)CCC2(CC1)N[C@@H](C(=O)N[C@@H]1CC[C@@H](Cc3nnco3)OC1)[C@H](c1ccnc(Cl)c1F)[C@]21C(=O)Nc2cc(Cl)ccc21` [Example 161, (3′R, 4′S,5′R)-6″-chloro-4′-(2-chloro-3-fluoropyridin-4-yl)-4,4-dimethyl-N-[(3R,6S)-6-(1,3,4-oxadiazol-2-ylmethyl)tetrahydro-2H-pyran-3-yl]-2″-oxo-1″,2″-dihydrodispiro[cyclohexane-1,2′-pyrrolidine-3′,3″-indole]-5′-carboxamide] returned an IC50 in data set [2] of 50 to 100 nM. In addition, the GI50 in data set [3] lay within 100 to 500 nM.

In turn, `CC1(C)CCC2(CC1)N[C@@H](C(=O)NC1CC3(C1)CC(CO)(CO)C3)[C@H](c1ccnc(Cl)c1F)[C@]21C(=O)Nc2cc(Cl)ccc21` [Example 162, (3′R, 4′S,5′R)—N-[6,6-bis(hydroxymethyl)spiro[3.3]hepta-2-yl]-6″-chloro-4′-(2-chloro-3-fluoropyridin-4-yl)-4,4-dimethyl-2′-oxo-1″,2″-dihydrodispiro[cyclohexane-1,2′-pyrrolidine-3′,3″-indole]-5′-carboxamide] came in with an IC50 in data set [2] of 50 to 100 nM. Also, in data set [3], the GI50 is 100 to 500 nM.

`O=C(N[C@@H]1CC[C@@H](CO)OC1)[C@@H]1NC2(CC(CF)(CF)C2)[C@@]2(C(=O)Nc3cc(Cl)ccc32)[C@H]1c1cc(F)cc(Cl)c1` [Example 164, (3′R, 4′R, 5′R)-6″-chloro-4′-(3-chloro-5-fluorophenyl)-3,3-bis(fluoromethyl)-N-[(3R,6S)-6-(hydroxymethyl)tetrahydro-2H-pyran-3-yl]-2″-oxo-1″,2″-dihydrodispiro[cyclobutane-1,2′-pyrrolidine-3′,3″-indole]-5′-carboxamide] had an IC50 in data set [2] of 100 to 500 nM. The GI50 in data set [3] was in the range of 1000 to 5000 nM.

As for `CC1(C)CCC2(CC1)N[C@@H](C(=O)N[C@@H]1CC[C@@H](C(=O)O)OC1)[C@H](c1ccnc(Cl)c1F)[C@]21C(=O)Nc2cc(Cl)ccc21` [Example 174, (2S,5R)-5-({[(3′B, 4′S,5′R)-6″-chloro-4′-(2-chloro-3-fluoropyridin-4-yl)-4,4-dimethyl-2″-oxo-1′″, 2″-dihydrodispiro[cyclohexane-1,2-pyrrolidine-3′,3″-indole]-5′-yl]carbonyl}amino)tetrahydro-2H-pyran-2-carboxylic acid], in data set [2], the IC50 lay in the range of 1 to 50 nM. For the same compound, in data set [3], the GI50 was above 5000 nM.

Consider `CC1(C)CCC2(CC1)N[C@@H](C(=O)N[C@@H]1CC[C@@H](C(N)=O)OC1)[C@H](c1cccc(Cl)c1F)[C@]21C(=O)Nc2nc(Cl)ccc21` [Example 179, (3′R, 4′S,5′R)—N-[(3R,6S)-6-carbamoyltetrahydro-2H-pyran-3-yl]-6″-chloro-4′-(3-chloro-2-fluorophenyl)-4,4-dimethyl-2″-oxo-1″,2″-dihydrodispiro[cyclohexane-1,2′-pyrrolidine-3′,3″-pyrrolo[2,3-b]pyridine]-5′-carboxamide], for which, in data set [2], the IC50 lay in the range of 1 to 50 nM. Moreover, in data set [3], the GI50 fell in the range of 1000 to 5000 nM.

In the case of `C[C@@H](O)[C@@H]1CC[C@@H](NC(=O)[C@@H]2NC3(CCC(C)(C)CC3)[C@@]3(C(=O)Nc4nc(Cl)ccc43)[C@H]2c2cccc(Cl)c2F)CO1` [Example 180, (3′R, 4′S,5′R)-6″-chloro-4′-(3-chloro-2-fluorophenyl)-N-{(3R,6S)-6-[(1R)-1-hydroxyethyl]tetrahydro-2H-pyran-3-yl}-4,4-dimethyl-2″-oxo-1″,2″-dihydrodispiro[cyclohexane-1,2′-pyrrolidine-3′,3″-pyrrolo[2,3-b]pyridine]-5′-carboxamide], the IC50 in data set [2] is 1 to 50 nM. Further, the GI50 in data set [3] was 1000 to 5000 nM.

Take `C[C@@H](O)[C@@H]1CC[C@@H](NC(=O)[C@@H]2NC3(CCC(C)(C)CC3)[C@@]3(C(=O)Nc4cc(Cl)ccc43)[C@H]2c2cccc(Cl)c2F)CO1` [Example 182, (3′R, 4′S,5′R)-6″-chloro-4′-(3-chloro-2-fluorophenyl)-N-{(3S,6S)-6-[(1R)-1-hydroxyethyl]tetrahydro-2H-pyran-3-yl}-4,4-dimethyl-2′-oxo-1″,2″-dihydrodispiro[cyclohexane-1,2′-pyrrolidine-3′,3″-indole]-5-carboxamide]: in data set [2], the IC50 lay within 1 to 50 nM. Further, the GI50 in data set [3] is below 100 nM.

Regarding `CC1(C)CCC2(CC1)N[C@@H](C(=O)N[C@H]1CC[C@H](c3nnco3)CC1)[C@H](c1cccc(Cl)c1F)[C@]21C(=O)Nc2cc(Cl)ccc21` [Example 183, (3′R, 4′S,5′R)-6′-chloro-4′-(3-chloro-2-fluorophenyl)-4,4-dimethyl-N-[trans-4-(1,3,4-oxadiazol-2-yl)cyclohexyl]-2″-oxo-1″,2″-dihydrodispiro[cyclohexane-1,2′-pyrrolidine-3′,3″-indole]-5′-carboxamide], the IC50 in data set [2] was in the range of 50 to 100 nM. Also, the GI50 in data set [3] lay in the range of 100 to 500 nM.

`CC1(C)CCC2(CC1)N[C@@H](C(=O)N[C@@H]1CC[C@@H](C(N)=O)OC1)[C@H](c1cccc(Cl)c1F)[C@]21C(=O)Nc2cc(Cl)ncc21` [Example 185, (3′R, 4′S,5′R)—N-[(3R,6S)-6-carbamoyltetrahydro-2H-pyran-3-yl]-6″-chloro-4′-(3-chloro-2-fluorophenyl)-4,4-dimethyl-2″-oxo-1″,2″-dihydrodispiro[cyclohexane-1,2-pyrrolidine-3′,3″-pyrrolo[3,2-c]pyridine]-5′-carboxamide] yielded a 50% inhibitory concentration (IC50) in data set [2] of 1 to 50 nM. Besides, the GI50 in data set [3] was in the range of 100 to 500 nM.

Compound `CC1(C)CCC2(CC1)N[C@@H](C(=O)N[C@@H]1CCC(C)(C(=O)O)OC1)[C@H](c1ccnc(Cl)c1F)[C@]21C(=O)Nc2cc(Cl)ccc21` (stereo partly drawn) [Example 186, (5R)-5-({[(3′R, 4′S,5′R)-6″-chloro-4′-(2-chloro-3-fluoropyridin-4-yl)-4,4-dimethyl-2″-oxo-1″,2″-dihydrodispiro[cyclohexane-1,2′-pyrrolidine-3′,3″-indole]-5′-yl]carbonyl}amino)-2-methyltetrahydro-2H-pyran-2-carboxylic acid] displayed a half-inhibitory concentration (IC50) in data set [2] of 1 to 50 nM. Besides, the GI50 in data set [3] lay within 1000 to 5000 nM.

In data set [2], `CC1(C)CCC2(CC1)N[C@@H](C(=O)NC1(C)CC[C@@H](C(=O)O)OC1)[C@H](c1ccnc(Cl)c1F)[C@]21C(=O)Nc2cc(Cl)ccc21` (stereo partly drawn) [Example 188, (2S)-5-({[(3′R, 4′S,5′R)-6″-chloro-4′-(2-chloro-3-fluoropyridin-4-yl)-4,4-dimethyl-2″-oxo-1″,2″-dihydrodispiro[cyclohexane-1,2′-pyrrolidine-3′,3″-indole]-5′-yl]carbonyl}amino)-5-methyltetrahydro-2H-pyran-2-carboxylic acid] registered an IC50 of 1 to 50 nM. Besides, the GI50 in data set [3] was 100 to 500 nM.

`CC1(C)CCC2(CC1)N[C@@H](C(=O)N[C@@H]1CC[C@@H](C(N)=O)OC1)[C@H](c1ccnc(Cl)c1F)[C@]21C(=O)Nc2cc(Cl)ncc21` [Example 191] had an IC50 in data set [2] of 1 to 50 nM. Besides, the GI50 in data set [3] was in the range of 100 to 500 nM.

Values taken from patent publication US12545685B2 (Daiichi Sankyo Company, Limited, priority 2011, dated 2026).
